Assay results published in US8895717B2, “Delivery of siRNA by neutral lipid compositions” (The Board of Regents of the University of Texas System, priority 2005, dated 2014).
d = 2'-deoxy (DNA); r = 2'-OH (RNA)

Tests used:
[1] = tested on: SKOV3ip1 cells; experiment: In vivo therapy with DOPC-FAK siRNA, SKOV3ip1 model; parameters: species or system nude mice; conditions: for Incidence (%) / No. Nodules: siRNA in DOPC twice weekly, docetaxel 50 μg weekly
Protocol: siRNA for in vivo delivery was incorporated into the phospholipid 1,2-dioleoyl-sn-glycero-3-phosphatidylcholine (DOPC). DOPC and siRNA were mixed in the presence of excess tertiary-butanol at a ratio of […], as previously described (Landen et al., 2005). Tween-20 was added to the mixture at a ratio of 1:19. The mixture was vortexed, frozen in an acetone/dry ice bath, and lyophilized. Before in vivo administration, this preparation was hydrated with normal (0.9%) saline at a concentration of 15 μg/ml to achieve the desired dose of 150-200 μl per injection. To estimate the quantity of siRNA not taken up by liposomes free siRNA was separated from liposomes by using filter units with a 30,000 nominal molecular weight limit (Millipore Corp, Billerica, Mass.). The liposomal suspension was added to the filters and centrifuged at 5,000 g for 40 min at room temperature. Fractions were collected, the material trapped in the filter was reconstituted with 0.9% saline, and the amount of siRNA in the collected fraction and eluent were measured by spectrophotometry.
To produce tumors, SKOV3ip1, Hey A8-MDR cells (1×10^6 cells/0.2 ml of HBSS) and Hey A8 cells (2.5×10^5 cells/0.2 ml of HBSS) were injected interperitoneally (i.p.) into the mice. For in vivo injections, cells were trypsinized and centrifuged at 1000 rpm for 7 minutes at 4° C., washed twice with PBS and reconstituted in serum-free Hank's balanced salt solution (HBSS, Life Technologies, Carlsbad, Calif.). Only single-cell suspensions with >95% viability, as determined by trypan blue exclusion, were used for the in vivo injections. Mice (n=10 per group) were monitored for adverse effects of therapy and were sacrificed on day 35 (SKOV3ip1) or day 28 (HeyA8 or HeyA8-MDR) or when any of the mice began to appear moribund. Mouse weight, tumor weight, and tumor distribution were recorded. Tissue specimens were snap frozen for lysate preparation, fixed in formalin for paraffin embedding or frozen on OCT compound (Miles, Inc., Elkhart, Ind.) for frozen slide preparation.
Based on the results of preliminary dose-response studies, a series of three separate therapy studies were initiated using the optimal FAK siRNA dosage. Tumor cells were injected i.p. and 7 days later, the mice were randomly assigned to five treatment groups: empty liposome twice weekly, non-specific control […] siRNA (3 μg) twice weekly, control FAK siRNA (3 μg) twice weekly in combination with 50 μg docetaxel weekly, FAK siRNA twice weekly and FAK siRNA (3 μg) twice weekly in addition to 50 μg docetaxel weekly.
The SKOV3ip1 or HeyA8 ovarian cancer cells were implanted into the peritoneal cavity of athymic nude mice for experiments designed to test the therapeutic potential of FAK-targeted inhibition of gene expression. Seven days later, therapy was started according to the following five treatment groups: 1) empty liposomes; 2) non-specific siRNA-DOPC; 3) docetaxel plus non-specific siRNA-DOPC; 4) FAK targeted siRNA-DOPC; and 5) docetaxel plus FAK-targeted siRNA-DOPC. The animals were sacrificed after 4 weeks of therapy and a necropsy was performed. The data for these therapies' effects on SKOV3ip1 and HeyA8 are summarized in FIGS. 6A and 6B, respectively. […] Treatment with FAK siRNA alone or docetaxel plus control siRNA were effective in inhibiting tumor growth (54 to 74%) in both cell lines compared with control (FIG. 13).

[2] = tested on: HeyA8 orthotopic model; experiment: Angiogenesis (MVD), proliferation (PCNA), apoptosis (TUNEL), VEGF and MMP-9 in harvested tumors; assay type: in vivo, nude mice; conditions: for endothelial cell apoptosis: CD31 and TUNEL dual localization
Protocol: Expression of PCNA was determined by IHC analysis using paraffin-embedded tumors. Sections (8-μm thick) were deparaffinized in xylene, treated with a graded series of alcohol [100%, 95%, 80% ethanol/double distilled H2O (v/v)], and rehydrated in PBS (pH 7.5). Antigen retrieval was performed by microwave heating for 5 minutes in 0.1 M citrate buffer pH 6.0, followed by blocking of endogenous […] with 3% H2O2 in methanol for 5 min. After PBS wash ×2, slides were blocked with 5% normal horse serum and 1% normal goat serum in PBS for 15 min at room temperature, followed by incubation with primary antibody (anti-PCNA, PC-10, mouse IgG, Dako), in blocking solution overnight at 4° C. After two PBS washes, the appropriate secondary antibody conjugated to horseradish peroxidase, in blocking solution, was added for 1 hour at room temperature. HRP was detected with DAB (Phoenix Biotechnologies, Huntsville, Ala.) substrate for 5 minutes, washed, and counterstained with Gil No. 3 hematoxylin (Sigma) for 20 sec. IHC for CD31 was performed on freshly cut frozen tissue. […] The primary antibody used was anti-CD31 (PECAM-1, rat IgG, Pharmingen). Staining for PCNA and CD31 was conducted on tumors collected at the conclusion of 4 week therapy trials.
To quantify MVD, 10 random 0.159-mm^2 fields at ×100 final magnification were examined for each tumor (1 slide per mouse, 5 slides per group), and the number of microvessels per field were counted. A single microvessel was defined as a discrete cluster or single cell stained positive for CD31 (CD31), and the presence of a lumen was required for scoring as a microvessel. To quantify PCNA expression, the number of positive cells (DAB staining) was counted in 10 random 0.159-mm^2 fields at ×100 magnification. To quantify TUNEL positive cells, the number of green fluorescence positive cells was counted in 10 random 0.01-mm^2 fields at ×400 magnification.
Expression of PCNA was determined by IHC analysis using paraffin-embedded tumors. Sections (8-μm thick) were mounted on positively charged Superfrost slides (Fisher Scientific Co., Houston, Tex.) and dried overnight. Sections were deparaffinized in xylene, treated with a graded series of alcohol [100%, 95%, 80% ethanol/double distilled H2O (v/v)], and rehydrated in PBS (pH 7.5). Antigen was retrieved by placing the slides in water and then boiling them in a microwave on high power for 5 min. Expression of CD31 was determined using fresh frozen tissues that were cut into 4-μm thick sections and mounted on positively charged slides. The slides were stored at −80° C.; sections were fixed in cold acetone for 10 min. and then washed twice with PBS for 3 min each time. A positive reaction was visualized by incubating the slides with stable 3,3 diaminobenzidine for 10-20 min. The sections were rinsed with distilled water, counterstained with Gill's hematoxylin for 1 min and mounted with Universal mount (Research Genetics).
To determine potential mechanisms underlying the efficacy of anti-FAK based therapy, its effects on several biological endpoints were examined, including angiogenesis (MVD), proliferation (PCNA), and apoptosis (TUNEL). Due to growing evidence related to FAK and tumor angiogenesis (Kornberg et al., 2004; Mitra et al., 2005). The inventors evaluated vessel density (FIG. 14B) in the tumors harvested from the studies described above. […]

| Substance | Incidence (%) [1] [%] | No. Nodules [1] | endothelial cell apoptosis [2] | mean MVD compared with empty liposomes ([2]; CD31 staining) | VEGF and MMP-9 expression ([2]; IHC) | PCNA expression compared to empty liposome or control siRNA ([2]; mouse, in vivo) | efficacy compared with empty liposomes [1] |
| --- | --- | --- | --- | --- | --- | --- | --- |
| FAK siRNA: sense r(CCACCUGGGCCAGUAUUAU)d(TT), antisense r(AUAAUACUGGCCCAGGUGG)d(TT); for in vivo delivery incorporated into DOPC (sense CCACCUGGGCCAGUAUUAUTT; antisense AUAAUACUGGCCCAGGUGGTT; sugars from the 5' end r19 d2, backbone not given here) | 70 | 3.7 | significantly increased | mean MVD was reduced | substantially reduced | Minimal reduction of PCNA expression | – |
| control siRNA: sense r(UUUUCCGAACGUGUCACGU)dTT, antisense r(ACGUGACACGUUCGGAGAA)dTT, no homology with human mRNA; in vivo in DOPC (sense UUUUCCGAACGUGUCACGUTT; antisense ACGUGACACGUUCGGAGAATT; sugars from the 5' end r19 d2, backbone not given here) | 100 | 15 | no apotosis seen in endothelial cells | – | – | – | not effective against SKOV3ip1 tumors |
